Assay results: patent US9598396B2, “Tetrahydrophenanthridinones and tetrahydrocyclopentaquinolinones as PARP and tubulin polymerization inhibitors” (Janssen Pharmaceutica NV, priority 2008, dated 2017)

What was measured:
[1] = tested on: Human colon carcinoma HCT116 cells; experiment: Detection of antiproliferative activity (Alamar Blue assay); type: cell-based; details: HCT-116, 96 h, 4-day incubation, read-out: Cellular assay HCT116 pIC50 (converted)
Method: Example C.4 Detection of Antiproliferative Activity
Human colon carcinoma HCT116 cells obtained from the ATCC were cultured in McCoy's 5A medium supplemented with 2 mM L-Glutamine, 50 μg/ml gentamicin and 10% heat inactivated fetal calf serum.
Reagents used in the Alamar Blue Assay
Resazurin was purchased from Aldrich (Prod. No. 199303). Potassium ferrocyanide, potassium ferricyanide, KH2PO4 and K2HPO4 were purchased from Sigma (Prod. Nos. P9387, P8131, P5655 and P8281, respectively).
Potassium Phosphate Buffer 0.1 M (PPB) was made as follows: 2.72 gram KH2PO4 and 13.86 gram K2HPO4 were dissolved in 500 ml milli-Q H2O, the pH was adjusted to pH 7.4 and the volume was brought to 1 liter with milli-Q H2O; the buffer was filter sterilised and stored at room temperature. Resazurin stock solution (PPB-A) was prepared fresh by dissolving 45 mg resazurin in 15 ml PBS. 30 mM potassium ferricyanide (PPB-B) was prepared by dissolving 0.987 gram potassium ferricyanide in 100 ml PPB. 30 mM potassium ferrocyanide (PPB-C) was prepared by dissolving 1.266 gram potassium ferrocyanide in 100 ml PPB.
Mixture of PPB-A, PPB-B and PPB-C was prepared by mixing equal volumes of the respective solutions. Resazurin work solution (herein termed “Alamar Blue” solution) was prepared by diluting said mixture 20× (vol/vol) in PPB and filter sterilising; the Alamar Blue solution could be kept at 4° C. for a maximum of 2 weeks.
Procedure of the Alamar Blue Assay
For experiments in 384 wells plates the cells were seeded at a density of 4.5×10^3 cells/ml in Falcon 384-well culture plates (Life Technologies, Merelbeke, Belgium), black with clear bottom, in 45 μl culture medium. Cells were allowed to adhere to plastic for 24 hours. The tested compound was pre-diluted (1/50 in culture medium) and 5 μl pre-diluted compound was added to the wells. Following 4-day incubation, 10 μl of the Alamar Blue solution was added to each well and the cells were further incubated for 4 hours (HCT116) or 24 hours (PC-3) at 37° C. The fluorescence intensity was measured for each well on a Fluorescence plate reader (Fluorskan, Labsystems, 540 nm excitation and 590 nm emission)
The antiproliferative activity was calculated as percentage of remaining viable cells in treated versus control (untreated cells) conditions. Within an experiment, the result for each experimental condition is the mean of 3 replicate wells. When appropriate, the experiments were repeated to establish full concentration-response curves. […] Herein the effects of tested compounds are expressed as pIC50 (the negative log value of the IC50 value) (see Table 3).

[2] = tested on: tubulin; experiment: Tubulin polymerization assay; type: biochemical; details: inhibition of polymerization at 20 μM and 5 μM
Method: Example C.5 Polymerization Assay
The tubulin polymerization assay is an adaptation of an assay originally described by Bonne, D. et al. (J. Biol. Chem., 1985, 260:2819-25). The assay kit was purchased from Cytoskeleton, Inc. (catalogue number BK011) and the assay was performed as described by the supplier with the following modifications. The assay was run in a 384-well black Proxiplate (Perkin Elmer) and volumes were adapted accordingly. The reactions were carried out in a final volume of 10 μl. Compounds were added to 25 μl of the reaction mix in 96-well PP plates (Corning) on ice and 10 μl of this mixture was dispensed into duplicates of the 384-well Proxiplates pre-warmed to 37° C. in a Fluoroskan Ascent plate reader (Thermo Scientific). Fluorescence measurements were taken every minute for one hour. The maximum slope of each well was determined (linear regression through 4 consecutive points) and polymerization was calculated as a percentage of polymerization observed in the absence of compound.

[3] = target: TANK-2 enzyme (Homo sapiens (Human), UniProt Q9H2K2); experiment: In vitro Scintillation Proximity Assay (SPA) for TANK-2 inhibitory activity; type: biochemical; details: auto-poly(ADP-ribosyl)ation, [3H]-NAD+, Ni flash plates (96 or 384 well)
Method: C.2.In Vitro Scintillation Proximity Assay (SPA) for TANK-2 Inhibitory Activity
Compounds of the present invention were tested in an in vitro assay based on SPA technology with Ni Flash plates (96 or 384 well).
In principle, the assay relies upon SPA technology for the detection of auto-poly(ADP-ribosyl)ation of TANK-2 protein using [^3H]-nicotinamide adenine dinucleotide ([^3H]-NAD^+) as ADP-ribosyl donor.
A stock solution of 100 nM [^3H]-NAD^+/NAD (0.1 mCi/ml, supplier: Perkin Elmer) and 25 μM NAD (Sigma) was made in assay buffer (60 mM Tris/HCl, pH 7.4; 0.9 mM DTT; 6 mM MgCl2). The TANK-2 enzyme was produced as described in EP1238063. 60 μl of assay buffer, together with 1 μl of compound in DMSO, 20 μl of [^3H]-NAD^+/NAD and 20 μl of TANK-2 enzyme (final concentration 8 μg/ml) was added per well into a 96-well Ni-coated flash plate (Perkin Elmer). After incubation of the mixture for 120 minutes at room temperature, the reaction was terminated by adding 60 μl of stopsolution (42.6 mg NAD in 6 ml H2O). The plates were covered with a plate sealer and placed in a TopCountNXT™ (Packard) for scintillation counting. Values were expressed as counts per minute (cpm). For each experiment, controls (containing TANK-2 enzyme and DMSO without compound), a blank incubation (containing DMSO but no TANK-2 enzyme or compound) and samples (containing TANK-2 enzyme and compound dissolved in DMSO) were run in parallel. All compounds tested were dissolved and eventually further diluted in DMSO. In first instance, compounds were tested at a concentration of 10^−5M. […] In each test, the blank value was subtracted from both the control and the sample values. The control sample represented maximal TANK-2 enzyme activity. For each sample, the amount of cpm was expressed as a percentage of the mean cpm value of the controls. […] Herein the effects of test compounds are expressed as pIC50 (the negative log value of the IC50-value). As reference compounds, 3-aminobenzamide and 4-amino-1,8-naphtalimide were included to validate the SPA assay. Herein the assay was described using 96-well plates. In the assay using 384-well plates the same final concentrations were used and volumes were adapted.

Sequence of TANK-2 enzyme (Q9H2K2 whole entry): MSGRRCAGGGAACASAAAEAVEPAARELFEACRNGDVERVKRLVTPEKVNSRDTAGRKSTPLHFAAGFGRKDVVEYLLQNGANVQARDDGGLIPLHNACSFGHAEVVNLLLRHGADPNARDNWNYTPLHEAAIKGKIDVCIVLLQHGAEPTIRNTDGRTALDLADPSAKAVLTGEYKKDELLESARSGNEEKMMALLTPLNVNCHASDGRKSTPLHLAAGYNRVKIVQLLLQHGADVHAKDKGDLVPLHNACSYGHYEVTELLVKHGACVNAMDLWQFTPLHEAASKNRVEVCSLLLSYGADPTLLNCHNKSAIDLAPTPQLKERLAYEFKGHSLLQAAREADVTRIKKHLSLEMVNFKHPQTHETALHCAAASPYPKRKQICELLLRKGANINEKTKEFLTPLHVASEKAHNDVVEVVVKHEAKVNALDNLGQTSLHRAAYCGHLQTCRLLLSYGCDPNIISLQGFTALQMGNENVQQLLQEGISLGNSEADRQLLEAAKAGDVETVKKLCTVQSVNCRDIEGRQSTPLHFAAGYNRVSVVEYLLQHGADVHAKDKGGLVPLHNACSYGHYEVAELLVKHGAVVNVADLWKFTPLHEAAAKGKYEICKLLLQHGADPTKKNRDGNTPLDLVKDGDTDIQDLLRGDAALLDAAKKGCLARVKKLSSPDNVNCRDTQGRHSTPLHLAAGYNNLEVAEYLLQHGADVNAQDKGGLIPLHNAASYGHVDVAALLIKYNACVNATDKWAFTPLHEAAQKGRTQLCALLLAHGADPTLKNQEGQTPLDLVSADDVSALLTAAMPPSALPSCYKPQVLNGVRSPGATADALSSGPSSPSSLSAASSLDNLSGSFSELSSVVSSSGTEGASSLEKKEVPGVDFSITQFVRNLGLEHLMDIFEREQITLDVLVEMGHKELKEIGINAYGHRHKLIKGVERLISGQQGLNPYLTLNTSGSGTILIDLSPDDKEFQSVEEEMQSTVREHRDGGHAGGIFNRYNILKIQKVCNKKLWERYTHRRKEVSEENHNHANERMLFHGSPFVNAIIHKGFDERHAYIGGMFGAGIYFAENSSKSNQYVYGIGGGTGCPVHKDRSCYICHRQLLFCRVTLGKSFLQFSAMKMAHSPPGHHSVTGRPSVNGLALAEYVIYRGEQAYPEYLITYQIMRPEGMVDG

| Compound | IC50 [1] | Assay Tubulin Polymerization score [2] | in vitro SPA assay TANK-2 pIC50 [3] |
| --- | --- | --- | --- |
| CC(C#N)(Cc1cccc(Cl)c1)c1ccc2c3c(c(=O)[nH]c2c1)CCCC3 (stereo not drawn) [Co. No. 8] | 155 nM | 2 | 7.28 |
| CC(C#N)(CCOc1ccc(C#N)cc1)c1ccc2c3c(c(=O)[nH]c2c1)CCCC3 (stereo not drawn) [Co. No. 17] | 204 nM | 2 | 7.28 |
| CC(C#N)(Cc1cccc(F)c1)c1ccc2c3c(c(=O)[nH]c2c1)CCCC3 (stereo not drawn) [Co. No. 5] | 282 nM | 2 | 7.71 |
| CC(C#N)(Cc1cccc(C#N)n1)c1ccc2c3c(c(=O)[nH]c2c1)CCCC3 (stereo not drawn) [Co. No. 7] | 58.9 nM | 3 (a compound showing more than 50% inhibition at 5 μM is reported as score 3) | 8.02 |
| CC(C#N)(Cc1ccccc1)c1ccc2c3c(c(=O)[nH]c2c1)CCCC3 (stereo not drawn) [Co. No. 1] | 355 nM | 2 | 7.85 |
| CC(C#N)(Cc1cccc(C#N)c1)c1ccc2c3c(c(=O)[nH]c2c1)CCCC3 (stereo not drawn) [Co. No. 4] | 148 nM | 2 | 7.76 |
